In test [1] the test system is Sf9. The experiment in a line: Induction of cell growth in Spodoptera frugiperda (fall armyworm) Sf9 cells at 10 uM after 72 hr by trypan blue dye exclusion test. It is filed as functional, cell-based.
In test [2] the test system is Sf9. The experiment in a line: Cytotoxicity against Spodoptera frugiperda (fall armyworm) Sf9 cells at 10 uM after 72 hr by trypan blue dye exclusion test. Type of test: functional, cell-based.
The test system of test [3] is Sf9. The experiment in a line: Cytotoxicity against Spodoptera frugiperda (fall armyworm) Sf9 cells at 1 to 10 uM after 72 hr by trypan blue dye exclusion test. It is filed as functional, cell-based.
The subject of test [4] is Spodoptera litura. The experiment in a line: Insecticidal activity against Spodoptera litura assessed as mortality at 500 mg/L after 6 days. It is filed as functional. The following applies: 144 h.
The test system of test [5] is Spodoptera litura. The experiment in a line: Inhibition of mitochondrial respiration in Spodoptera litura mitochondria assessed as oxygen consumption at 20 uM at 2:1 minute after addition of 0.1 mM of ADP (reference value: 54.4%). It is filed as functional. Also on record: scale not given: the % may be the effect or the level left.
Test [6] deals with Sf9. The experiment in a line: Cytotoxicity against Spodoptera frugiperda (fall armyworm) Sf9 cells assessed as formation of granular structures at 1 to 10 uM after 72 hr by microscopic analysis. It is filed as functional, cell-based.
Test [7] has as its system Spodoptera litura. The experiment in a line: Inhibition of mitochondrial respiration in Spodoptera litura mitochondria assessed as oxygen consumption at 20 uM at 1:1 minute after addition of 0.1 mM of ADP (reference value: 12.2%). Type of test: functional. Also on record: scale not given: the % may be the effect or the level left.
Test [8] relates to Sf9. The experiment in a line: Cytotoxicity against Spodoptera frugiperda (fall armyworm) Sf9 cells at 0.01 to 10 uM after 72 hr by trypan blue dye exclusion test. Type of test: functional, cell-based.
The test system of test [9] is Spodoptera litura. The experiment in a line: Inhibition of mitochondrial respiration in Spodoptera litura mitochondria assessed as oxygen consumption at 20 uM at 3:1 minute after addition of 0.2 mM of rotenone and 0.1 mM of succinate (reference value: 0.5%). Type of test: functional. The arrangement: scale not given: the % may be the effect or the level left.
Test [10] deals with Sf9. The experiment in a line: Cytotoxicity against Spodoptera frugiperda (fall armyworm) Sf9 cells at 5 uM after 72 hr by trypan blue dye exclusion test. Type of test: functional, cell-based.
Test [11] deals with Sf9. The experiment in a line: Cytotoxicity against Spodoptera frugiperda (fall armyworm) Sf9 cells at 0.1 to 1 uM after 72 hr by trypan blue dye exclusion test. Type of test: functional, cell-based.
Test [12] concerns Sf9. The experiment in a line: Cytotoxicity against Spodoptera frugiperda (fall armyworm) Sf9 cells at 0.1 to 10 uM after 72 hr by trypan blue dye exclusion test. Type of test: functional, cell-based.

Data on 16 molecules can be found in ChEMBL document CHEMBL3045850, “Effects of Pyridalyl, a Novel Insecticidal Agent, on Cultured Sf9 Cells” (2005).

Calls of active or inactive are those of the source. The calls are words filed in the database; no cut-off is given here.

Consider `CNC(=O)ON=C(C)SC`, for which the outcome in the test on Sf9 [1] was Active.
`COP(=O)(NC(C)=O)SC` (stereo unspecified): the outcome in the test on Sf9 [1] was Active.
For the molecule `COc1ccc(C[C@H]2NC[C@H](O)[C@H]2OC(C)=O)cc1`, the result with Sf9 [2] was Active.
Turning to `C=C(C)[C@H]1Cc2c(ccc3c2O[C@@H]2COc4cc(OC)c(OC)cc4[C@@H]2C3=O)O1`, the result in the test on Sf9 [3] was Active.
On to `FC(F)(F)c1ccc(OCCCOc2ccc(OCC=C(Cl)Cl)cc2)nc1`, for which the result in the test with Sf9 [2] was inactive. In the test on Spodoptera litura [4], the mortality at 500 µg/mL worked out at 0%.
Turning to `FC(F)(F)c1ccc(OCCCOc2c(Cl)cc(OCC=C(Cl)Cl)cc2Cl)nc1` [PYRIDALYL], the values for the Activity with Spodoptera litura [5], in the test with Spodoptera litura [7] and in the test on Spodoptera litura [9] were 53.3%, 12.2% and 0.5%, respectively. Also, the outcome with Sf9 [6] and with Sf9 [8] was Active. The mortality at 500 µg/mL in the test with Spodoptera litura [4] amounted to 100%.
For `FC(F)(F)c1ccc(OCCCOc2c(Cl)cc(OC/C(Cl)=C/Cl)cc2Cl)nc1`, the result in the test with Sf9 [2] was inactive. For the same molecule, the mortality at 500 µg/mL in the test with Spodoptera litura [4] worked out at 0%.
With `ClC(Cl)=CCOc1cc(Cl)c(OCCCOc2ccc(Cl)cc2)c(Cl)c1`, the outcome in the test on Sf9 [2] was Active. In addition, in the test with Spodoptera litura [4], the mortality at 500 µg/mL was 100%.
As to `O=[N+]([O-])c1ccc(O)c([N+](=O)[O-])c1`, the outcome in the test on Sf9 [2] was Active.
For `CC1(C)C(C=C(Cl)Cl)C1C(=O)OC(C#N)c1cccc(Oc2ccccc2)c1` (stereo unspecified), the result in the test with Sf9 [1] was Active.
As for `C[C@@]1(CO)[C@H](O)CC[C@@]2(C)[C@H]1CC[C@H]1C[C@@H]3C[C@@]12CC[C@]3(O)CO`, the result with Sf9 [10] was inactive.
Turning to `ClC(Cl)=C(Cl)COc1cc(Cl)c(OCCCOc2ccc(Cl)cc2)c(Cl)c1`, the outcome with Sf9 [2] was inactive. Further, in the test on Spodoptera litura [4], the mortality at 500 µg/mL came to 0%.
Take `O=c1[nH]cc(F)c(=O)[nH]1`: in the test with Sf9 [11], the result was Active.
As to `CC[C@H]1/C=C/C=C/C[C@@H](C)[C@H](O)[C@@](C)(O)C(=O)[C@@H](C)[C@H](O)[C@@H](C)C(=O)[C@@H](C)[C@H](O)[C@@H](C)/C=C/C(=O)O[C@@H]2[C@H](C)[C@H](CC1)O[C@]1(CC[C@H](C)[C@H](C[C@@H](C)O)O1)[C@H]2C`, the result in the test with Sf9 [3] was Active.
With `CC(COc1cc(Cl)c(OCCCOc2ccc(Cl)cc2)c(Cl)c1)=C(Cl)Cl`, the result in the test with Sf9 [2] was inactive. Further, the mortality at 500 µg/mL in the test on Spodoptera litura [4] amounted to 0%.
Take `CCOCn1c(-c2ccc(Cl)cc2)c(C#N)c(Br)c1C(F)(F)F`: the outcome in the test on Sf9 [12] was Active.

What is called mortality is the percentage killed.
